Marks after values point to notes of the source that are not given here.
Columns and labels:
influenza = test: Volunteers experimentally infected with influenza (Protocol I); conditions: human, in vivo
Excerpt: Thirty-four similarly infected volunteers (34) served as untreated controls. […] The hematological and immunological indices examined immediately following the period of treatment were restored to within the normal range.

Shigella dysenterae = test: Shigella dysentery; design: species or system human; conditions: in vivo
Excerpt: A total 125 patients infected with Shigella dysentery were examined. Fifty-three patients constituted the control group.

[1] = Chronic liver disease: jaundice and systemic toxicity; design: species or system human; conditions: in vivo
[2] = test system: lymphocytes of thymus, spleen, lymph nodes, peripheral blood; test: Recovery of immune cells in irradiated guinea pigs (1 Gy); assay type: in vivo; conditions: for E-RFC / E-RFC (% Normal) / EA-RFC / EA-RFC (% Normal) / EAC-RFC / EAC-RFC (% Normal) / Lymphocytes / Lymphocytes (% Normal) / Lymphocyte Blastogenesis with Con-A / Neutrophil Cationic Protein Levels: 0.01 mg/kg daily 5 days
Excerpt: X-irradiation an accepted experimental animal model for depressing cellular immune mechanisms operative in anti-bacterial, anti-viral, and anti-parasitic immunity. The levels of lymphocytes in thymus, spleen, and lymph node are decreased following sub-lethal radiation exposure, and the effects of L-Glu-L-Trp on recovery of immune function following radiation exposure were investigated in this model.
142 guinea pigs were exposed to 1 Gy of X-irradiation and then treated with L-Glu-L-Trp at a dose of 0.01 mg/kg daily for 5 days starting two days after the irradiation. Immunologic indices were determined at 5, 10, and 20 days by preparing samples of immune cells from thymus, spleen, lymph nodes, and peripheral blood. Cell preparations were analyzed to determine the content of lymphocytes, E-RFC (i.e., T-lymphocytes), EA-RFC (“activated” T-lymphocytes), and EAC-RFC (i.e., B-lymphocytes). (The materials and methods used in these analyses are presented following EXAMPLE 38, below. The results obtained in these experiments are summarized in TABLE 55. […]
Neutrophil cationic proteins were determined according to the method of V. E. Pigarevsky and Yu. A. Mazing (1981). Briefly, blood smears were air dried, stained for 20 minutes in a buffered methanol.-fast green solution, washed in distilled water, and stained for an additional 30 minutes with Azure 11. The percentage of cells containing green-colored granules was determined by microscopically counting a minimum of 100-200 of the cells in the smears, and cation protein concentration was recorded as the mean cytotoxic coefficient (MCC) according to a modified formula of Astold & Berg.

cAMP and cGMP = test: Splenic lymphocyte cAMP and cGMP, normal, sensitized and anaphylactic animals; assay type: in vivo, guinea pigs; conditions: for cAMP / cAMP/cGMP / cGMP: splenic lymphocytes, 10 μg/kg
Description: Normal guinea pigs (10/group) were treated with 10 μg/kg L-Glu-L-Trp daily on each of five consecutive days and then spleens were removed, lymphocytes isolated, and cyclic AMP and GMP levels determined. To evaluate the effects of L-Glu-L-Trp on immune cells in the face of an ongoing anaphylactic response, splenic lymphocytes were isolated from guinea pigs sensitized for anaphylaxis, or following induction of anaphylactic shock.

[3] = lymph node, 5 days post irradiation (1 Gy)
[4] = lymph node, 10 days post irradiation (1 Gy)
[5] = lymph node, 20 days post irradiation (1 Gy)
[6] = peripheral blood, 5 days post-irradiation
[7] = peripheral blood, 10 days post-irradiation
[8] = peripheral blood, 20 days post-irradiation
[9] = splenic, 5 days post irradiation (1 Gy)
[10] = splenic, 10 days post irradiation (1 Gy)
[11] = splenic, 20 days post irradiation (1 Gy)
[12] = thymic, 5 days post irradiation (1 Gy)
[13] = thymic, 10 days post irradiation (1 Gy)
[14] = thymic, 20 days post irradiation (1 Gy)
[15] = sensitized + anaphylaxis (Group 5)
[16] = sensitized guinea pigs (Group 3)

L-Glu-L-Trp
Clinical outcome (influenza): normalization of fever, reduction in toxic symptoms | Clinical outcome (Shigella dysenterae): normalization of fever, reduction of toxemia | Seropositive patients with a positive response to therapy [1]: 21 of the 29 | Seropositive patients with no detectable change [1]: 8 | Splenic B-lymphocytes (EAC-RFC), % of normal ([2]; day 5): 82% | Thymic T-lymphocyte counts, % of normal ([2]; day 5): 67% | Thymic lymphocytes, % of normal ([2]; day 5): 82% | Splenic B-lymphocytes (EAC-RFC), % of normal ([2]; day 10): 100% | Thymic T-lymphocyte counts, % of normal ([2]; day 10): 51% | Thymic lymphocytes, % of normal ([2]; day 10): 56% | Lymph node T-lymphocyte counts ([2]; guinea pig, in vivo): significantly increased T-lymphocyte counts in lymph nodes on days 5, 10 and 20 | E-RFC [2, 3]: 40 +/− 4** × 10^9/L | E-RFC (% Normal) [2, 3]: (122%) | EA-RFC [2, 3]: 20 +/− 3** × 10^9/L | EA-RFC (% Normal) [2, 3]: (111%) | EAC-RFC [2, 3]: 25 +/− 2** × 10^9/L | EAC-RFC (% Normal) [2, 3]: (45%) | Lymphocytes [2, 3]: 183 +/− 21* × 10^9/L | Lymphocytes (% Normal) [2, 3]: (73%) | E-RFC [2, 4]: 29 +/− 3** × 10^9/L | E-RFC (% Normal) [2, 4]: (88%) | EA-RFC [2, 4]: 17 +/− 2** × 10^9/L | EA-RFC (% Normal) [2, 4]: (94%) | EAC-RFC [2, 4]: 12 +/− 1* × 10^9/L | EAC-RFC (% Normal) [2, 4]: (21%) | Lymphocytes [2, 4]: 75 +/− 13* × 10^9/L | Lymphocytes (% Normal) [2, 4]: (30%) | E-RFC [2, 5]: 30 +/− 2** × 10^9/L | E-RFC (% Normal) [2, 5]: (91%) | EA-RFC [2, 5]: 25 +/− 4** × 10^9/L | EA-RFC (% Normal) [2, 5]: (139%) | EAC-RFC [2, 5]: 9 +/− 1* × 10^9/L | EAC-RFC (% Normal) [2, 5]: (16%) | Lymphocytes [2, 5]: 242 +/− 31** × 10^9/L | Lymphocytes (% Normal) [2, 5]: (96%) | Con-A responsiveness and neutrophil cationic proteins ([2]; peripheral blood): statistically significant decrease in Con-A responsiveness and increased levels of neutrophil cationic proteins | Lymphocyte Blastogenesis with Con-A [2, 6]: 44 +/− 4** % | Neutrophil Cationic Protein Levels [2, 6]: 1.42 +/− 0.15* | Lymphocyte Blastogenesis with Con-A [2, 7]: 67 +/− 5** % | Neutrophil Cationic Protein Levels [2, 7]: 1.54 +/− 0.09** | Lymphocyte Blastogenesis with Con-A [2, 8]: 49 +/− 2** % | Neutrophil Cationic Protein Levels [2, 8]: 1.63 +/− 0.11** | E-RFC [2, 9]: 48 +/− 4** × 10^9/L | E-RFC (% Normal) [2, 9]: (120%) | EA-RFC [2, 9]: 22 +/− 4** × 10^9/L | EA-RFC (% Normal) [2, 9]: (85%) | EAC-RFC [2, 9]: 60 +/− 5** × 10^9/L | EAC-RFC (% Normal) [2, 9]: (82%) | Lymphocytes [2, 9]: 378 +/− 36** × 10^9/L | Lymphocytes (% Normal) [2, 9]: (92%) | E-RFC [2, 10]: 29 +/− 3* × 10^9/L | E-RFC (% Normal) [2, 10]: (73%) | EA-RFC [2, 10]: 15 +/− 2* × 10^9/L | EA-RFC (% Normal) [2, 10]: (58%) | EAC-RFC [2, 10]: 73 +/− 5** × 10^9/L | EAC-RFC (% Normal) [2, 10]: (100%) | Lymphocytes [2, 10]: 147 +/− 18** × 10^9/L | Lymphocytes (% Normal) [2, 10]: (36%) | E-RFC [2, 11]: 45 +/− 4** × 10^9/L | E-RFC (% Normal) [2, 11]: (113%) | EA-RFC [2, 11]: 29 +/− 4** × 10^9/L | EA-RFC (% Normal) [2, 11]: (112%) | EAC-RFC [2, 11]: 82 +/− 9 × 10^9/L | EAC-RFC (% Normal) [2, 11]: (112%) | Lymphocytes [2, 11]: 260 +/− 32** × 10^9/L | Lymphocytes (% Normal) [2, 11]: (64%) | E-RFC [2, 12]: 252 +/− 26** × 10^9/L | E-RFC (% Normal) [2, 12]: (67%) | EA-RFC [2, 12]: 150 +/− 16** × 10^9/L | EA-RFC (% Normal) [2, 12]: (52%) | EAC-RFC [2, 12]: 4 +/− 1** × 10^9/L | EAC-RFC (% Normal) [2, 12]: (80%) | Lymphocytes [2, 12]: 395 +/− 27** × 10^9/L | Lymphocytes (% Normal) [2, 12]: (82%) | E-RFC [2, 13]: 195 +/− 21** × 10^9/L | E-RFC (% Normal) [2, 13]: (51%) | EA-RFC [2, 13]: 143 +/− 16** × 10^9/L | EA-RFC (% Normal) [2, 13]: (49%) | EAC-RFC [2, 13]: 3 +/− 0.4* × 10^9/L | EAC-RFC (% Normal) [2, 13]: (60%) | Lymphocytes [2, 13]: 276 +/− 26** × 10^9/L | Lymphocytes (% Normal) [2, 13]: (57%) | E-RFC [2, 14]: 343 +/− 30** × 10^9/L | E-RFC (% Normal) [2, 14]: (91%) | EA-RFC [2, 14]: 243 +/− 28** × 10^9/L | EA-RFC (% Normal) [2, 14]: (84%) | EAC-RFC [2, 14]: 4 +/− 0.4 × 10^9/L | EAC-RFC (% Normal) [2, 14]: (80%) | Lymphocytes [2, 14]: 423 +/− 40** × 10^9/L | Lymphocytes (% Normal) [2, 14]: (88%) | cAMP and cGMP levels (cAMP and cGMP; sensitized and anaphylactic animals): significantly elevated the levels of cAMP and cGMP | cAMP (cAMP and cGMP; [15]): 210 ± 30 pmole/10^7 cells | cAMP/cGMP (cAMP and cGMP; [15]): 26 ± 3 | cGMP (cAMP and cGMP; [15]): 7.9 ± 0.5 pmole/10^7 cells | cAMP (cAMP and cGMP; [16]): 250 ± 30 pmole/10^7 cells | cAMP/cGMP (cAMP and cGMP; [16]): 22 ± 2 | cGMP (cAMP and cGMP; [16]): 11.2 ± 0.9 pmole/10^7 cells

From patent US6368788B1 (priority 1987, dated 2002)
